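All cell lines were grown in 96-well plates and treated with compound for 48 hours. GI50 marks 50% less growth.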 Calls of active or inactive are those of the source. No stated cut-off is given here; in the data, active = GI50 up to about 1.1 µM and inactive = higher.
Tests used:
Test in all cases: NCI-60 cell line screen, 48 h
LOX IMVI = system: LOX IMVI
HOP-92 = system: HOP-92
OVCAR-8 = system: OVCAR-8
TK-10 = system: TK-10
K562 = system: K562
SK-MEL-5 = system: SK-MEL-5
HOP-62 = system: HOP-62
ACHN = system: ACHN
NCI-H522 = system: NCI-H522
SK-OV-3 = system: SK-OV-3
MDA-N = system: MDA-N
IGROV-1 = system: IGROV-1
NCI/ADR-RES = system: NCI/ADR-RES
M14 = system: M14
UO-31 = system: UO-31
HL-60 = system: HL-60
RXF 393 = system: RXF 393
SN12C = system: SN12C
EKVX = system: EKVX

Measured: GI50

CN(C)c1ccc(C2SCC(=O)N2c2nc3cc4sc(N5C(=O)CSC5c5ccc(N(C)C)cc5)nc4cc3s2)cc1 (stereo unspecified)
inactive: LOX IMVI 43.9 µM | HOP-92 > 60.5 µM | OVCAR-8 > 70.5 µM | TK-10 > 100 µM | K562 40.9 µM | SK-MEL-5 32 µM | HOP-62 56.6 µM | ACHN 28.1 µM | NCI-H522 3.76 µM | SK-OV-3 85.7 µM | MDA-N 45.2 µM | IGROV-1 29.3 µM | NCI/ADR-RES > 23.3 µM | M14 51.3 µM | UO-31 23.1 µM | HL-60 29 µM | RXF 393 > 100 µM | SN12C > 20.5 µM | EKVX 54.1 µM

CCOC(=O)C(Cl)(NC(=O)c1c(F)c(F)c(F)c(F)c1F)C(F)(F)F (stereo unspecified)
inactive: LOX IMVI > 100 µM | HOP-92 28.3 µM | OVCAR-8 > 100 µM | TK-10 > 100 µM | K562 > 100 µM | SK-MEL-5 > 100 µM | HOP-62 > 100 µM | ACHN > 100 µM | NCI-H522 19.5 µM | SK-OV-3 > 100 µM | MDA-N > 100 µM | IGROV-1 > 100 µM | NCI/ADR-RES > 100 µM | M14 > 100 µM | UO-31 > 100 µM | HL-60 22.1 µM | RXF 393 > 100 µM | SN12C > 100 µM | EKVX 75.9 µM

O=C1C(=O)c2c(oc(=O)c3ccccc23)-c2ccccc21
inactive: LOX IMVI 16.9 µM | HOP-92 15.3 µM | OVCAR-8 16.4 µM | TK-10 > 25 µM | K562 > 25 µM | SK-MEL-5 12.6 µM | HOP-62 > 25 µM | ACHN > 25 µM | NCI-H522 21.2 µM | SK-OV-3 > 25 µM | MDA-N 24.4 µM | IGROV-1 > 25 µM | NCI/ADR-RES 22.9 µM | M14 > 25 µM | UO-31 > 25 µM | HL-60 8.11 µM | RXF 393 > 25 µM | SN12C 14.5 µM | EKVX > 25 µM

CCC1(O)CN(CCOC)[C@H]2C[C@@H]1C(=O)c1[nH]c3ccccc3c12 (stereo partly specified)
inactive: LOX IMVI > 100 µM | HOP-92 > 100 µM | OVCAR-8 > 100 µM | TK-10 > 100 µM | K562 > 100 µM | SK-MEL-5 > 100 µM | HOP-62 > 100 µM | ACHN > 100 µM | NCI-H522 > 100 µM | MDA-N > 100 µM | IGROV-1 > 100 µM | NCI/ADR-RES > 100 µM | M14 > 100 µM | UO-31 > 100 µM | HL-60 > 100 µM | RXF 393 > 100 µM | SN12C > 100 µM | EKVX > 100 µM

CN(C)Cc1cc(C(=O)/C=C/c2ccc(F)cc2)cc(CN(C)C)c1O
inactive: LOX IMVI 5.92 µM | HOP-92 29.2 µM | OVCAR-8 21.4 µM | TK-10 85.9 µM | K562 17.8 µM | SK-MEL-5 19.1 µM | HOP-62 21.6 µM | ACHN 14.6 µM | NCI-H522 15.2 µM | MDA-N > 10 µM | IGROV-1 22.4 µM | NCI/ADR-RES 24.7 µM | M14 12.4 µM | UO-31 13.4 µM | HL-60 11.5 µM | RXF 393 12.9 µM | SN12C 18.4 µM | EKVX 35.6 µM

Cc1ccc2c(c1C)C(=O)/C(=C/c1ccccc1C(=O)O)C2
inactive: LOX IMVI > 100 µM | HOP-92 > 100 µM | OVCAR-8 > 100 µM | TK-10 > 100 µM | K562 > 100 µM | SK-MEL-5 42.3 µM | HOP-62 > 100 µM | ACHN > 100 µM | NCI-H522 > 100 µM | MDA-N > 100 µM | IGROV-1 > 100 µM | NCI/ADR-RES > 100 µM | M14 > 100 µM | UO-31 > 100 µM | HL-60 > 100 µM | RXF 393 > 100 µM | SN12C > 100 µM | EKVX > 100 µM

CC(C)N(C(=O)C12C3(C(=O)OC(C)(C)C)C4C5(C#N)C3C1(C(=O)OC(C)(C)C)C5C42C(=O)OC(C)(C)C)C(C)C (stereo unspecified)
inactive: LOX IMVI 14.4 µM | HOP-92 8.32 µM | OVCAR-8 > 100 µM | TK-10 > 100 µM | K562 34.6 µM | SK-MEL-5 60.1 µM | HOP-62 > 100 µM | ACHN > 100 µM | NCI-H522 35.3 µM | MDA-N 19.1 µM | IGROV-1 > 100 µM | NCI/ADR-RES 76.4 µM | M14 59.6 µM | UO-31 60.4 µM | HL-60 20.1 µM | RXF 393 12.9 µM | SN12C > 100 µM | EKVX 53 µM

CS/C=C\C(=O)O[C@H]1C[C@@H]2[C@@H](O)c3occ(C)c3C[C@]2(C)[C@@H](C)C1
inactive: LOX IMVI 17.6 µM | HOP-92 25.8 µM | OVCAR-8 22.6 µM | TK-10 50 µM | K562 15.4 µM | SK-MEL-5 14.9 µM | HOP-62 23.2 µM | ACHN 24.9 µM | NCI-H522 23.2 µM | SK-OV-3 36.6 µM | MDA-N 20.3 µM | IGROV-1 20.4 µM | NCI/ADR-RES 18.5 µM | M14 20.3 µM | HL-60 14.9 µM | RXF 393 22.9 µM | SN12C 16 µM | EKVX 37.5 µM

CC(=O)Nc1ccc(S(=O)(=O)N=S(C)C)cc1
inactive: LOX IMVI > 100 µM | HOP-92 > 100 µM | OVCAR-8 > 100 µM | TK-10 > 100 µM | K562 > 100 µM | HOP-62 > 100 µM | ACHN > 100 µM | NCI-H522 > 100 µM | SK-OV-3 > 100 µM | MDA-N > 100 µM | IGROV-1 > 100 µM | NCI/ADR-RES > 100 µM | M14 > 100 µM | UO-31 > 100 µM | HL-60 > 100 µM | RXF 393 > 100 µM | SN12C > 100 µM | EKVX > 100 µM

CC(=O)C1(/N=N/c2ccc(S(N)(=O)=O)cc2)CCOC1=O (stereo unspecified)
inactive: LOX IMVI > 100 µM | HOP-92 > 100 µM | OVCAR-8 > 100 µM | TK-10 > 100 µM | SK-MEL-5 > 100 µM | HOP-62 > 100 µM | ACHN > 100 µM | NCI-H522 > 100 µM | SK-OV-3 > 100 µM | MDA-N > 100 µM | IGROV-1 > 100 µM | NCI/ADR-RES > 100 µM | M14 > 100 µM | UO-31 > 100 µM | HL-60 64.6 µM | RXF 393 > 100 µM | SN12C > 100 µM | EKVX > 100 µM

C=C1c2nc3ccccc3n2C=C(c2ccc(Cl)cc2)N1c1ccc(OC)cc1
inactive: LOX IMVI 36.9 µM | HOP-92 10.3 µM | OVCAR-8 4.43 µM | TK-10 4.82 µM | K562 25.6 µM | SK-MEL-5 6.53 µM | ACHN 3.56 µM | NCI-H522 4 µM | SK-OV-3 10.7 µM | MDA-N 13.2 µM | IGROV-1 6.27 µM | NCI/ADR-RES 3.48 µM | M14 7.8 µM | UO-31 6.38 µM | HL-60 76.7 µM | RXF 393 10.1 µM | SN12C 11.9 µM | EKVX 8.51 µM
